This passage reports IC50 results from patent publication US12018023B2 (NERVIANO MEDICAL SCIENCES S.R.L., priority 2018, dated 2024).

Experiment [1] addresses T1, IDH1^R132H homodimer enzyme (Homo sapiens, UniProt O75874, R132H).
T1 construct: purchased not specified
The experiment in a line: NADPH depletion assay, IDH1 R132H. The format is biochemical. The method, then:
(§1) IDH mutated enzyme activity converting alpha-ketoglutarate to 2-hydroxyglutaric acid is measured using a NADPH depletion assay. In the assay the remaining cofactor is measured at the end of the reaction with the addition of a catalytic excess of diaphorase and resazurin, to generate a fluorescent signal in proportion to the amount of NADPH remaining. IDH1 WT enzyme as well as mutated isoforms IDH1^R132H, IDH1^R132C, and IDH^2R172K enzymes are commercially available proteins (see e.g. Sino Biological, Abcam, Active Motif or Creative BioMart).
(§2) IDH1^R132H homodimer enzyme are diluted to 8 nM, in 10 μL of Assay Buffer (150 mM NaCl, 50 mM Tris-HCl pH 7.6, 10 mM MgCl2, 0.001% Triton X-100, 4 mM β-mercaptoethanol); 0.2 uL of test compound, previously serially diluted 1 to 3, >10 experimental points from 1 mM in DMSO, is added and the mixture is incubated for 15 minutes at room temperature. The reaction is started with the addition of 10 μL of Substrate Mix (12 uM NADPH, 3.4 mM alpha-ketoglutarate in Assay Buffer) and the mixture is incubated for 60 minutes at room temperature. The reaction is terminated with the addition of 5 μl of Detection Buffer (100 μg/mL diaphorase, 30 μM resazurin, in IX Assay Buffer), and is incubated for 15 minute before reading on a ViewLux as platereader at Ex544/Em590.

A further experiment concerns the target T2, IDH1^R132C (Homo sapiens, UniProt O75874, R132C).
T2 construct: purchased not specified
The experiment in a line: NADPH depletion assay, IDH1 R132C. The experiment is classed as biochemical. The method, then:
as §1, §2
Compounds are assayed for their activity against IDH1^R132C following the same assay as above with the following modifications: IDH1^R132C and alpha-ketoglutarate final concentrations in the Assay Buffer is 2 nM and 0.14 mM, respectively.

Structures can show the parent of a compound that is named as a salt.

T2 sequence (O75874 whole entry R132C): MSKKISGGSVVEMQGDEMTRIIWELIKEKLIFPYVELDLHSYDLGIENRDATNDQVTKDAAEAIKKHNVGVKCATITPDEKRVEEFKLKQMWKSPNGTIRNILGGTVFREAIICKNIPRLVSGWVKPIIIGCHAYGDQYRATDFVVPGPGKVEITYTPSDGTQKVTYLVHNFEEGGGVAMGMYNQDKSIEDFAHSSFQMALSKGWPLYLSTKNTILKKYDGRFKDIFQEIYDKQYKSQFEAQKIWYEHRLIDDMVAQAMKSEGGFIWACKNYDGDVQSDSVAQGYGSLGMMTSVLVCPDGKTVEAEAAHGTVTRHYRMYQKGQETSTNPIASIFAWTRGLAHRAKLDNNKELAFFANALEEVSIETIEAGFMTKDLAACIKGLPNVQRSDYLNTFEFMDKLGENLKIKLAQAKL
T1 sequence (O75874 whole entry R132H): as the sequence (O75874 whole entry R132C) above, with C132H counted along it

With `CC(C)[C@H](C)n1c(=O)ccc2cnc(N[C@@H](C)c3ccc(C4=CCN(C(=O)OC(C)(C)C)CC4)cn3)nc21` [cpd 193, tert-butyl 6-[(1S)-1-({8-[(2S)-3-methylbutan-2-yl]-7-oxo-7,8-dihydropyrido[2,3-d]pyrimidin-2-yl}amino)ethyl]-3′,6′-dihydro-3,4′-bipyridine-1′(2′H)-carboxylate], the half-maximal inhibitory concentration (IC50) was 126 nM in experiment [1] and 89 nM against IDH1^R132C.
With `C[C@H](Nc1ncc2ccc(=O)n(CC(C)(C)C)c2n1)c1ccc(CN2CCOCC2)cc1F` [cpd 153, 8-(2,2-dimethylpropyl)-2-({(1S)-1-[2-fluoro-4-(morpholin-4-ylmethyl)phenyl]ethyl}amino)pyrido[2,3-d]-pyrimidin-7(8H)-one], the IC50 in experiment [1] is 226 nM; on IDH1^R132C, 41 nM.
Turning to `C[C@H](Nc1ncc2ccc(=O)n(CC(C)(C)C)c2n1)c1ccc(CN2CC(F)(F)C2)cc1` [cpd 147, 2-{[(1S)-1-{4-[(3,3-difluoroazetidin-1-yl)methyl]phenyl}ethyl]amino}-8-(2,2-dimethylpropyl)pyrido[2,3-d]pyrimidin-7(8H)-one], the IC50 in experiment [1] came out at 473 nM; on IDH1^R132C it was 173 nM.
For `COC(=O)c1ccc([C@H](C)Nc2ncc3ccc(=O)n(CC4(C)COC4)c3n2)cc1` [cpd 10, methyl 4-[(1S)-1-({8-[(3-methyloxetan-3-yl)methyl]-7-oxo-pyrido[2,3-d]pyrimidin-2-yl}amino)ethyl]benzoate] the same measures were 3850 nM and 1920 nM.
In the case of `C[C@H](Nc1ncc2ccc(=O)n(CC(C)(C)C)c2n1)c1ccc(CN2CCNCC2)cc1` [cpd 138, 8-(2,2-Dimethyl-propyl)-2-[(S)-1-(4-piperazin-1-ylmethyl-phenyl)-ethylamino]-8H-pyrido[2,3-d]pyrimidin-7-one hydrochloride], the half-maximal inhibitory concentration (IC50) in experiment [1] was found to be 2260 nM; against IDH1^R132C, 777 nM.
For `CC(C)[C@H](C)n1c(=O)ccc2cnc(N[C@@H](C)c3ccc(-c4ccnc(F)c4)cn3)nc21` [cpd 197, 2-{[(1S)-1-(2′-fluoro-3,4′-bipyridin-6-yl)ethyl]amino}-8-[(2S)-3-methylbutan-2-yl]pyrido[2,3-d]pyrimidin-7(8H)-one] the same measures were 2340 nM and 405 nM.
In the same order, the values of `CCOC(=O)C(C)n1c(=O)ccc2cnc(N[C@@H](C)c3ccc(CN4CCCC(F)(F)C4)cc3)nc21` (stereo partly drawn) [cpd 63, ethyl 2-[2-{[(1S)-1-{4-[(3,3-difluoropiperidin-1-yl)methyl]phenyl}ethyl]amino}-7-oxopyrido[2,3-d]pyrimidin-8(7H)-yl]propanoate] are 290 nM and 123 nM.
`COC(=O)c1ccc([C@H](C)Nc2ncc3ccc(=O)n(Cc4ccc(F)cc4C(F)(F)F)c3n2)cc1` [cpd 8, methyl-4-[(1S)-1-({8-[4-fluoro-2-(trifluoromethyl)benzyl]-7-oxo-pyrido[2,3-d]pyrimidin-2-yl}amino)ethyl]benzoate]: the concentration for half-maximal inhibition (IC50) in experiment [1] is 2440 nM; on IDH1^R132C, 1380 nM.
In the same order, the values of `C[C@H](Nc1ncc2cc(F)c(=O)n(CC(C)(C)C)c2n1)c1ccccc1` [cpd 47, 8-(2,2-Dimethyl-propyl)-6-fluoro-2-((S)-1-phenyl-ethylamino)-8H-pyrido[2,3-d]pyrimidin-7-one] are 1810 nM and 597 nM.
On IDH1^R132C, `C=CC(=O)N1CCN(Cc2ccc([C@H](C)Nc3ncc4ccc(=O)n(CC)c4n3)cc2)C[C@H]1C` [cpd 208, 2-{[(1S)-1-(4-{[(3R)-4-acryloyl-3-methylpiperazin-1-yl]methyl}phenyl)ethyl]amino}-8-ethylpyrido[2,3-d]pyrimidin-7(8H)-one] yielded an IC50 of 213 nM.
For the compound `C[C@H](Nc1ncc2ccc(=O)n(CC(C)(C)C)c2n1)c1ccc(C(=O)NC2CCC(F)(F)CC2)c(Cl)c1` [cpd 88, 2-chloro-N-(4,4-difluorocyclohexyl)-4-[(1S)-1-{[8-(2,2-dimethylpropyl)-7-oxo-7,8-dihydropyrido[2,3-d]pyrimidin-2-yl]amino}ethyl]benzamide], the IC50 was 138 nM in experiment [1] and 97 nM at IDH1^R132C.
For `C[C@H](Nc1ncc2ccc(=O)n(CC(C)(C)C)c2n1)c1ccc(CN2CCN(C(=O)C3CC3)CC2)cc1` [cpd 158, 2-{[(1S)-1-(4-{[4-(cyclopropylcarbonyl)piperazin-1-yl]methyl}phenyl)ethyl]amino}-8-(2,2-dimethylpropyl) pyrido[2,3-d]pyrimidin-7(8H)-one] the same measures were 126 nM and 40 nM.
In the same order, the values of `CC(C)[C@H](C)n1c(=O)ccc2cnc(N[C@@H](C)c3ccc(CN4CCN(C)C(=O)C4)cc3)nc21` [cpd 188, 8-[(2S)-3-methylbutan-2-yl]-2-{[(1S)-1-{4-[(4-methyl-3-oxopiperazin-1-yl)methyl]phenyl}ethyl]amino}-pyrido [2,3-d]pyrimidin-7(8H)-one] are 330 nM and 120 nM.
For `COc1ccc(Cn2c(=O)ccc3cnc(N[C@@H](C)c4ccc(Cl)cc4)nc32)cc1` [cpd 21, 2-{[(1S)-1-(4-chlorophenyl)ethyl]amino}-8-(4-methoxybenzyl)pyrido[2,3-d]pyrimidin-7(8H)-one] the same measures were 2490 nM and 586 nM.
As for `C[C@H](Nc1ncc2ccc(=O)n(CC(C)(C)CO)c2n1)c1ccc(CN2CCC(F)(F)CC2)cc1` [cpd 55, 2-{(S)-1-[4-(4,4-Difluoro-piperidin-1-ylmethyl)-phenyl]-ethylamino}-8-(3-hydroxy-2,2-dimethyl-propyl)-8H-pyrido[2,3-d]pyrimidin-7-one], the IC50 was determined as 137 nM in experiment [1] and 65 nM against IDH1^R132C.
In the case of `CCn1c(=O)ccc2cnc(N[C@@H](C)c3ccc(CN4CCN(C(=O)OC(C)(C)C)CC4)cc3)cc21` [cpd 232, 4-{4-[(S)-1-(1-Ethyl-2-oxo-1,2-dihydro-[1,6]naphthyridin-7-ylamino)-ethyl]-benzyl}-piperazine-1-carboxylic acid tert-butyl ester], the IC50 at IDH1^R132C came out at 330 nM.
`C[C@H](Nc1ncc2ccc(=O)n(CC(C)(C)C)c2n1)c1ccc(CO)c(F)c1` [cpd 90, 8-(2,2-dimethylpropyl)-2-({(1S)-1-[3-fluoro-4-(hydroxymethyl)phenyl]ethyl}amino)pyrido[2,3-d]pyrimidin-7(8H)-one]: the figures for the IC50 (in experiment [1]; against IDH1^R132C) were 697 nM and 391 nM, respectively.
For `C=CC(=O)N1CCN(Cc2ccc([C@H](C)Nc3ncc4ccc(=O)n(CCN=[N+]=[N-])c4n3)cc2)CC1` [cpd 182, 2-{[(1S)-1-{4-[(4-acryloylpiperazin-1-yl)methyl]phenyl}ethyl]amino}-8-(2-azidoethyl)pyrido[2,3-d]pyrimidin-7(8H)-one] the same measures were 103 nM and 61 nM.
As for `C=CC(=O)N1CCN(Cc2ccc([C@H](C)Nc3ncc4ccc(=O)n(CC)c4n3)cc2)C[C@@H]1C` [cpd 211, 2-{[(1S)-1-(4-{[(3S)-4-acryloyl-3-methylpiperazin-1-yl]methyl}phenyl)ethyl]amino}-8-ethylpyrido[2,3-d]pyrimidin-7(8H)-one], at IDH1^R132C, the half-inhibitory concentration (IC50) turned out to be 525 nM. This lies in the sub-micromolar range.
The same measure, in the same setting: the result for `C=CC(=O)N1CC[C@@H](Oc2ccc([C@H](C)Nc3ncc4ccc(=O)n(CC)c4n3)cc2)C1` [cpd 223, 2-{[(1S)-1-(4-{[(3R)-1-acryloylpyrrolidin-3-yl]oxy}phenyl)ethyl]amino}-8-ethylpyrido[2,3-d]pyrimidin-7(8H)-one] reads 1670 nM; that for `CC(C)[C@H](C)n1c(=O)ccc2cnc(N[C@@H](C)c3ccc(N4CCNCC4)nc3)nc21` [cpd 180, 8-[(2S)-3-methylbutan-2-yl]-2-({(1S)-1-[6-(piperazin-1-yl)pyridin-3-yl]ethyl}amino)pyrido[2,3-d]pyrimidin-7(8H)-one], 3540 nM; that for `C=CC(=O)N1CCN(Cc2ccc([C@H](C)Nc3cc4c(ccc(=O)n4CC)cn3)cc2)CC1` [cpd 236, 7-{(S)-1-[4-(4-Acryloyl-piperazin-1-ylmethyl)-phenyl]-ethylamino}-1-ethyl-1H-[1,6]naphthyridin-2-one], 105 nM.
`CCC(=O)N1CCN(C(CC)c2ccc([C@H](C)Nc3ncc4ccc(=O)n(C(C)C)c4n3)cc2)CC1` (stereo partly drawn) [cpd 240, 2-{[(1S)-1-{4-[1-(4-propanoylpiperazin-1-yl)propyl]phenyl}ethyl]amino}-8-(propan-2-yl)pyrido[2,3-d]pyrimidin-7(8H)-one]: the IC50 at IDH1^R132C was 68 nM.
On the same count and under the same terms, the value for `C=CC(=O)N1CCN(Cc2ccc([C@H](C)Nc3ncc4ccc(=O)n(CC)c4n3)cc2)[C@@H](C)C1` [cpd 210, 2-{[(1S)-1-(4-{[(2S)-4-acryloyl-2-methylpiperazin-1-yl]methyl}phenyl)ethyl]amino}-8-ethylpyrido[2,3-d]pyrimidin-7(8H)-one] was 183 nM; that for `C=CC(=O)N1CCN(Cc2ccc([C@H](C)Nc3ncc4ccc(=O)n(CC)c4n3)cc2)[C@H](C)C1` [cpd 207, 2-{[(1S)-1-(4-{[(2R)-4-acryloyl-2-methylpiperazin-1-yl]methyl}phenyl)ethyl]amino}-8-ethylpyrido[2,3-d]pyrimidin-7(8H)-one] was 624 nM.
